Assay [1] concerns the target Sucrase-isomaltase, intestinal (Homo sapiens, UniProt P14410). Nature of the assay: Inhibition of sucrase.
The nature of assay [2]: Cytotoxicity against human Bre04 cells. In kind it is functional.
A short description of assay [3]: Inhibition of alpha-amylase.
A further assay addresses Maltase-glucoamylase (Homo sapiens, UniProt O43451). Kind of assay: Inhibition of maltase.
A short description of assay [4]: Cytotoxicity against human N04 cells. The assay is classed as functional.
The nature of assay [5]: Cytotoxicity against human Lu04 cells. In kind it is functional.

Some results are limits rather than exact numbers.

The record followed here is ChEMBL document CHEMBL1141779, “Sesterterpenoids, terretonins A-D, and an alkaloid, asterrelenin, from Aspergillus terreus” (J Nat Prod, 2005).

Chain of Maltase-glucoamylase (O43451 whole entry): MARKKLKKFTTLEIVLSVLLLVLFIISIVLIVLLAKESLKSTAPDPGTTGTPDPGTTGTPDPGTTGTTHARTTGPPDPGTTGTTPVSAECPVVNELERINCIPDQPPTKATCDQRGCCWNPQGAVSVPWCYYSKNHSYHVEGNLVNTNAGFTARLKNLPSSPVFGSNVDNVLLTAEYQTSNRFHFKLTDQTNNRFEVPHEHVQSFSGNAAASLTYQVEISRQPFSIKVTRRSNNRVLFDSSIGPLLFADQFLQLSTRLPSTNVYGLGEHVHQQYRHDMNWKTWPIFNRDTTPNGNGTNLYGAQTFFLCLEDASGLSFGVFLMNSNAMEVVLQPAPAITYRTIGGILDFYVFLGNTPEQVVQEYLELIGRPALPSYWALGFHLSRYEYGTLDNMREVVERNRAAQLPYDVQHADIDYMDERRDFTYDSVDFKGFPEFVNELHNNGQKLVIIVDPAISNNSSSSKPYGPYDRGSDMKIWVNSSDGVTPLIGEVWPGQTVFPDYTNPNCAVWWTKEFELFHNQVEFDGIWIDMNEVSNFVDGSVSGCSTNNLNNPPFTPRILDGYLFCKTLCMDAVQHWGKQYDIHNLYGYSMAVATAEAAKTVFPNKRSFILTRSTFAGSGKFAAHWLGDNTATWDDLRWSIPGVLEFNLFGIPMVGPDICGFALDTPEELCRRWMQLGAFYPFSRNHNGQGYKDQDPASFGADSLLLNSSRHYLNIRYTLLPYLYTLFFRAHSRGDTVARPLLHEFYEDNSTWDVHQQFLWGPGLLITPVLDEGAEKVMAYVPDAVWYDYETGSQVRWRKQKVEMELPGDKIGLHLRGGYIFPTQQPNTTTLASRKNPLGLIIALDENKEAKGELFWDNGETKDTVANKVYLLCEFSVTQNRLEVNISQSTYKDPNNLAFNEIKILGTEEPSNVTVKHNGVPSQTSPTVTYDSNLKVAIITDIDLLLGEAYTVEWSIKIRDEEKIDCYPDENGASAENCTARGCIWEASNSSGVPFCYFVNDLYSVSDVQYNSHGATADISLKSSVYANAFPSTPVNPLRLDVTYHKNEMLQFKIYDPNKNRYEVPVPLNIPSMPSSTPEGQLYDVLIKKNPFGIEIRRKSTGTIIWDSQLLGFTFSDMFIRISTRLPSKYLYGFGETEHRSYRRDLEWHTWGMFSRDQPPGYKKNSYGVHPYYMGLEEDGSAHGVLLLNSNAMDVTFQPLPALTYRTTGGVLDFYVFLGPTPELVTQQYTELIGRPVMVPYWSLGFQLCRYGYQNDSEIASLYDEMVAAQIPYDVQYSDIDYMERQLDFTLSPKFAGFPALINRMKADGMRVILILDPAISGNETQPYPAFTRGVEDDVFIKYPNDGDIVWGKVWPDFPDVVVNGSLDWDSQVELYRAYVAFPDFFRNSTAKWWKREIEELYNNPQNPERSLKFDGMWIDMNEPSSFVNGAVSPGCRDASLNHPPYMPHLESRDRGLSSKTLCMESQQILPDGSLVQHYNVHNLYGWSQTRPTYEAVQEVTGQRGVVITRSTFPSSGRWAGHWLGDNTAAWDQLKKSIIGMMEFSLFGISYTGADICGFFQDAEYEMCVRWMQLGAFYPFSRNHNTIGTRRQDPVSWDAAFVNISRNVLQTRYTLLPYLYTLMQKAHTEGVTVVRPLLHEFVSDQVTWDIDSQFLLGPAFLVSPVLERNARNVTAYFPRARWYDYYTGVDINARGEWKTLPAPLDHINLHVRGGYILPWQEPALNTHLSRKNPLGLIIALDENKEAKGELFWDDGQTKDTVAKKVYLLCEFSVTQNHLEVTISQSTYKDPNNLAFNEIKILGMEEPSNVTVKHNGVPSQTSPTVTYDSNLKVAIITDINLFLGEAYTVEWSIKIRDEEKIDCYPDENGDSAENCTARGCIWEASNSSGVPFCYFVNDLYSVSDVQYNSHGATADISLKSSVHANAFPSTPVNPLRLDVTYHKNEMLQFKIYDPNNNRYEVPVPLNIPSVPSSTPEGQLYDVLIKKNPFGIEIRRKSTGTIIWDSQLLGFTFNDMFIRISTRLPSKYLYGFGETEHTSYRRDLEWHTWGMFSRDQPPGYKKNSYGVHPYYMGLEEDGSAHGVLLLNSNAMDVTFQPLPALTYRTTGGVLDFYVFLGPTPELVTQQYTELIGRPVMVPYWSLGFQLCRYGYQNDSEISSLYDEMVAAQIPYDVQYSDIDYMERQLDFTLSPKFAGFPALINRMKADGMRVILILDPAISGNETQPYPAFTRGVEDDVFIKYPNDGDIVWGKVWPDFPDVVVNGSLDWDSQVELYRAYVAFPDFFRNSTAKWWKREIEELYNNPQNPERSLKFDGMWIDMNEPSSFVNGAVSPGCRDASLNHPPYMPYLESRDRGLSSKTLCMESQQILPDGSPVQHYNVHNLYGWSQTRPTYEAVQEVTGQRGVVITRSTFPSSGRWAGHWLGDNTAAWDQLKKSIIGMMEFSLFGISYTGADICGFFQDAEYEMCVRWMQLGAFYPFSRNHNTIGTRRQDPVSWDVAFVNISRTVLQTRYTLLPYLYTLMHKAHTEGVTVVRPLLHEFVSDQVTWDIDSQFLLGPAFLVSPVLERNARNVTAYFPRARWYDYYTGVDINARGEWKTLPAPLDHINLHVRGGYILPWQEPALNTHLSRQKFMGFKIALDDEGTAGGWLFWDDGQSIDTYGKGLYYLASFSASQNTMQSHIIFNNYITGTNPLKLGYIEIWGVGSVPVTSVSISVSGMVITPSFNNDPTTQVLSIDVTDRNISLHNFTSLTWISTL
Chain of Sucrase-isomaltase, intestinal (P14410 2-1007 limits assumed): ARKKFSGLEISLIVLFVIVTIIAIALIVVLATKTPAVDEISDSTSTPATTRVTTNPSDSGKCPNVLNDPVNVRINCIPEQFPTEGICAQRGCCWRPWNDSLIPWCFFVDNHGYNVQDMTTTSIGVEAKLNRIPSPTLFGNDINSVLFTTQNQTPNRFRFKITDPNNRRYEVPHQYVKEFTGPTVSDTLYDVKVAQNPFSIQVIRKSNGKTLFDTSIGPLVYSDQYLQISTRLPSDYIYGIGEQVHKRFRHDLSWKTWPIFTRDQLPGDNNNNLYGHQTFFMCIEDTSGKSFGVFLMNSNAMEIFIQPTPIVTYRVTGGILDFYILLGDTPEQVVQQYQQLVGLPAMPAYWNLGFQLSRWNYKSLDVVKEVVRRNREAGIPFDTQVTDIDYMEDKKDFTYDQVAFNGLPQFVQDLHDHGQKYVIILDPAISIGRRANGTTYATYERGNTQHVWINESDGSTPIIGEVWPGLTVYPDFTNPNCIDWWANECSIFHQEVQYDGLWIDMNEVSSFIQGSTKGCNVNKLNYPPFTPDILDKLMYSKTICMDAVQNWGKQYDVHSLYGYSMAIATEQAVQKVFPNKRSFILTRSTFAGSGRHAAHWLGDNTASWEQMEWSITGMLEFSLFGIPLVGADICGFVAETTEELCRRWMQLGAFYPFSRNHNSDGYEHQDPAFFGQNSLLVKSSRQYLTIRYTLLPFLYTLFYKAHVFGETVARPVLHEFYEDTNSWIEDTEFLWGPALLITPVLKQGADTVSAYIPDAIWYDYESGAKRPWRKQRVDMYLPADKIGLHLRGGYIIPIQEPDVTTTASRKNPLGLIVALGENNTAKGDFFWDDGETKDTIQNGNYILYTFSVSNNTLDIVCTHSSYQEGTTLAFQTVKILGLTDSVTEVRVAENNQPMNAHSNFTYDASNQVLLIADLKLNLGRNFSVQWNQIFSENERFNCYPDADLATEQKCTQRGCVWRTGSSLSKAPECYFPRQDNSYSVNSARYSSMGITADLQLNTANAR
Chain of Sucrase-isomaltase, intestinal (P14410 1008-1827 limits assumed): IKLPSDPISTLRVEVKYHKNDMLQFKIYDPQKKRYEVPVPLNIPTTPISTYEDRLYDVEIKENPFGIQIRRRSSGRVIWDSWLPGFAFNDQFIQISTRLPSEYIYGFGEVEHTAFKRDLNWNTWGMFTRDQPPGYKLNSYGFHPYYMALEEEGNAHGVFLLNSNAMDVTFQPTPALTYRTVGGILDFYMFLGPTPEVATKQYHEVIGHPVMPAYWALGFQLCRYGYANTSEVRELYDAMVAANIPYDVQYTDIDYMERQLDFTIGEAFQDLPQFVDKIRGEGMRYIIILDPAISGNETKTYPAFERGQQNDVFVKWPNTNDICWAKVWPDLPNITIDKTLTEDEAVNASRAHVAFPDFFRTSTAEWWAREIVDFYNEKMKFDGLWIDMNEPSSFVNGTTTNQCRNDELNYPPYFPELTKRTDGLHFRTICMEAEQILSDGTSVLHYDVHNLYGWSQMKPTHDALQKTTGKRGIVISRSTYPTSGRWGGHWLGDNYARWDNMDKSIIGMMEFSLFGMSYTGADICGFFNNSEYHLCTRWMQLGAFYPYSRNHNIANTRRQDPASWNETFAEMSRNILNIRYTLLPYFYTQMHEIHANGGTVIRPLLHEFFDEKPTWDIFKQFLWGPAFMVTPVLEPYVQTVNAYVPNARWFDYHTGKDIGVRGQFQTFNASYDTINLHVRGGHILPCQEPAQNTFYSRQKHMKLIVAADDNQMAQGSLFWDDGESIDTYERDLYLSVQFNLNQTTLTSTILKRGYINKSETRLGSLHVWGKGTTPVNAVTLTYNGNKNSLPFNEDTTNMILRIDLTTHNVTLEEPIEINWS

In the case of `C=C1C[C@H]2[C@@](C)(C(=O)C(O)=C3C(C)(C)C(=O)CC[C@@]32C)[C@@H]2C(=O)O[C@@](C)(C(=O)OC)C(=O)[C@@]12C` [TERRETONIN A], the IC50 (in general, the concentration needed to halve the response being measured) in assay [1] is greater than 212 µM; in assay [3] it was greater than 100 µg/mL; at Maltase-glucoamylase, greater than 212 µM. The GI50 in assay [2], in assay [4] and in assay [5] was greater than 100 µg/mL each time.
`C=C1C[C@]2(O)[C@@]3(C)CCC(=O)C(C)(C)C3=C(O)C(=O)[C@@]2(C)[C@@H]2C(=O)O[C@@](C)(C(=O)OC)C(=O)[C@@]12C` [TERRETONIN]: the concentration for half-maximal inhibition (IC50) in assay [1] is greater than 205 µM; in assay [3], greater than 100 µg/mL; against Maltase-glucoamylase, greater than 205 µM. In addition, the GI50 in assay [2], in assay [4] and in assay [5] was greater than 100 µg/mL throughout.
For the compound `COc1cc(-c2cc3c(c(=O)o2)C[C@]2(O)[C@@]4(C)C(=O)C=CC(C)(C)[C@]4(O)CC[C@@]2(C)O3)cc2c1OCO2` [TERRITREM A], the IC50 was greater than 196 µM in assay [1], greater than 100 µg/mL in assay [3] and greater than 196 µM against Maltase-glucoamylase. Also, the 50% growth inhibitory concentration (GI50) in assay [2], in assay [4] and in assay [5] was greater than 100 µg/mL throughout.
